Measurements reported in patent US10183952B2, “Thienopyrroles as histone demethylase inhibitors” (ISTITUTO EUROPEO DI ONCOLOGIA S.R.L., priority 2014, dated 2019).
Structures can show the parent of a compound that is named as a salt.

Assays:
[1] = molecular target: human recombinant KDM1A/CoREST protein (Homo sapiens, UniProt O60341); assay: Assay of enzyme inhibition of KDM1A (LSD1), TR-FRET
Protocol: The intensity of the light emission is proportional to the level of biotinylated reaction product. The complex of human recombinant KDM1A/CoREST protein was produced in E. coli as separate proteins and co-purified as previously described.
Demethylase reaction was started by the addition of 50 nM histone H3K4 monomethylated.
The resulting mixture was incubated in the dark for 1 h at RT.

human leukemia NB4 cells = assay: Cell growth, CellTiter-Fluor Cell Viability Assay, NB4; assay type: cell-based; conditions: NB-4, 48 h incubation, read-out: IC50 against human leukemia NB4 cells
Source text: (§1) The CellTiter-Fluor™ Cell Viability Assay measures the conserved and constitutive protease activity within live cells and therefore acts as a marker for cell viability.
(§2) CellTiter-Flor® (Promega) is as a nonlytic, single-reagent-addition fluorescence assay that measures the relative number of living cells in a culture population after experimental manipulation. The CellTiter-Fluor™ Cell Viability Assay measures the conserved and constitutive protease activity within live cells and therefore acts as a marker for cell viability.
(§3) Human leukemia MV4-11 cells, (obtained from the Deutsche Sammlung von Mikroorganismen und Zellkulturen, ACC 102) or NB4 cells, (obtained from the Deutsche Sammlung von Mikroorganismen und Zellkulturen) in exponential growth, were incubated for 48 h with different concentrations of the inhibitors. After 48 h a volume of CellTiter-Fluor® Reagent equal to one fifth of volume of cell culture medium was added. The content was mixed and incubates for at least 90 min at 37° C. degree to obtain a stable signal. The fluorescence was recorded using an excitation wavelength of 360 nm and an emission at 535 nm. The IC50 was calculated using GraphPad Software.

[2] = system: human leukemia MV4-11 cells; assay: Cell growth, CellTiter-Fluor Cell Viability Assay, MV4-11; assay type: cell-based; conditions: 48 h incubation, read-out: IC50 against human leukemia MV4-11 cells
Source text: as §1, §2, §3

SMILES	IC50 [1] [µM]	IC50 (human leukemia NB4 cells) [µM]	IC50 [2] [µM]
Cn1c(C(=O)Nc2ccccc2COc2ccc(OC3CCNCC3)cc2)cc2sccc21 [Example 1, 4-Methyl-N-[2-[[4-(4-piperidyloxy)phenoxy]methyl]phenyl]thieno[3,2-b]pyrrole-5-carboxamide]	< 10	< 20	< 10
Cn1c(C(=O)Nc2ccccc2COc2ccc(OCC3CCNCC3)cc2)cc2sccc21 [Example 2, 4-methyl-N-[2-[[4-(4-piperidylmethoxy)phenoxy]methyl]phenyl]thieno-[3,2-b]pyrrole-5-carboxamide]	< 10	< 20	< 10
CCN1CCC(Oc2ccc(OCc3ccccc3NC(=O)c3cc4sccc4n3C)cc2)CC1 [Example 3, N-[2-[[4-[(1-ethyl-4-piperidyl)oxy]phenoxy]methyl]phenyl]-4-methyl-thieno[3,2-b]pyrrole-5-carboxamide]	< 10	< 20	< 10
Cn1c(C(=O)Nc2ccccc2COc2ccc(OC[C@@H]3CCNC3)cc2)cc2sccc21 [Example 4, 4-methyl-N-[2-[[4-[[(3R)-pyrrolidin-3-yl]methoxy]phenoxy]methyl]phenyl]thieno[3,2-b]pyrrole-5-carboxamide]	< 10	< 20	< 10
Cn1c(C(=O)Nc2ccccc2COc2ccc(OCC3CCNC3)cc2)cc2sccc21 (stereo not drawn) [Example 5, 4-methyl-N-[2-[[4-(pyrrolidin-3-ylmethoxy)phenoxy]methyl]phenyl]thieno[3,2-b]pyrrole-5-carboxamide]	< 10	< 20	< 10
CCn1c(C(=O)Nc2cccc(COc3ccc(OC4CCNCC4)cc3)c2)cc2sccc21 [Example 6, 4-ethyl-N-[3-[[4-(4-piperidyloxy)phenoxy]methyl]phenyl]thieno[3,2-b]pyrrole-5-carboxamide]	< 10	< 20	< 10
Cn1c(C(=O)Nc2ccccc2COc2ccc(OC3CCCNCC3)cc2)cc2sccc21 (stereo not drawn) [Example 7, N-[2-[[4-(azepan-4-yloxy)phenoxy]methyl]phenyl]-4-methyl-thieno[3,2-b]pyrrole-5-carboxamide hydrochloride]	< 10	< 20	< 10

The next lines start with the values.

IC50 [1] [µM]	IC50 (human leukemia NB4 cells) [µM]	IC50 [2] [µM]	SMILES
< 10	< 20	< 10	CCn1c(C(=O)Nc2ccccc2COc2ccc(OC3CCNCC3)cc2)cc2sccc21 [Example 8, 4-ethyl-N-[2-[[4-(4-piperidyloxy)phenoxy]methyl]phenyl]thieno[3,2-b]pyrrole-5-carboxamide]
< 10	< 20	< 10	Cn1c(C(=O)Nc2ccccc2COc2ccc(O[C@H]3CC[C@@H](N)CC3)cc2)cc2sccc21 [Example 9, N-[2-[[4-(cis-4-aminocyclohexoxy)phenoxy]methyl]phenyl]-4-methyl-thieno[3,2-b]pyrrole-5-carboxamide]
< 10	< 20	< 10	Cn1c(C(=O)Nc2cccc(COc3ccc(OC4CCNCC4)cc3)c2)cc2sccc21 [Example 10, 4-methyl-N-[3-[[4-(4-piperidyloxy)phenoxy]methyl]phenyl]thieno[3,2-b]pyrrole-5-carboxamide]
< 10	< 20	< 10	Cn1c(C(=O)Nc2ccccc2COc2ccc(OC[C@H]3CCNC3)cc2)cc2sccc21 [Example 11, 4-methyl-N-[2-[[4-[[(3S)-pyrrolidin-3-yl]methoxy]phenoxy]methyl]phenyl]thieno[3,2-b]pyrrole-5-carboxamide]
< 10	< 20	< 10	CCn1c(C(=O)Nc2ccccc2COc2ccc(OC3CCN(C)CC3)cc2)cc2sccc21 [Example 12, 4-ethyl-N-[2-[[4-[(1-methyl-4-piperidyl)oxy]phenoxy]methyl]phenyl]thieno[3,2-b]pyrrole-5-carboxamide]
